Assay results from patent publication US5919761A, “Peptides for heparin and low molecular weight heparin anticoagulation reversal” (The Board of Regents of the University of Michigan, priority 1995, dated 1999).

Experiments:
LMWH (LHN-1, Logiparin) [1] = experiment: Percent reversal of low molecular weight heparin anticoagulation, in vivo canine study, coagulation tests; design: species or system dogs; conditions: for aPTT reversal: Logiparin
Method: Anticoagulation reversal was assessed by a number of standard coagulation tests performed upon samples of venous blood: activated clotting time (ACT), heparin concentration by assay for FXa inhibitory activity (FXa), thrombin clotting time (TCT), and heparin concentration by assay for FIIa inhibitory activity (FIIa). Measurements were made 3 minutes prior to heparin reversal (baseline) and 3 minutes, 10 minutes, and 30 minutes post-administration of the heparin reversal agent. […] The coagulation data were corrected for naturally occurring metabolism.

[2] = clinical use; cited from earlier work
[3] = Percent change in platelet count after standard heparin reversal, cell adhesion ligand analogs, canine study; type: in vivo; conditions: dogs, agent over 10 seconds
Method: In addition to hemodynamic changes, Table 15 lists the percent change in platelet count following administration of n-protamine and the selected variants, as well as the factor Xa and factor IIa reversal, as a percent change at 3 minutes post administration of the compound.

[4] = Platelet count, leukocyte count and bleeding time after LMWH reversal at different rates, canine study; type: in vivo, dogs
Method: (§3) The anticoagulation-reversing agents were administered rapidly over 10 seconds to maximize hemodynamic effects or more slowly over a 3 minute interval. Changes in LMWH anticoagulation occurring from metabolism alone were determined in a separate group of dogs not given any reversal agent.

[5] = Platelet and white cell counts after standard heparin reversal, canine study; type: in vivo; conditions: dogs, 3 minutes post-reversal, resolved by about 30 minutes
Method: (§1) Anticoagulation reversal was assessed by a number of standard coagulation tests performed upon samples of venous blood: activated clotting time (ACT), prothrombin time (PT), activated partial thromboplastin time (aPTT), thrombin clotting time (TCT), heparin concentration by assay for FXa inhibitory activity (FXa), white cell count (WBC), and platelet counts (PLT). Measurements were made 3 minutes prior to heparin reversal (baseline) and 3 minutes and 30 minutes post-administration of the heparin reversal agent. The "Heparin" row sets forth the observed reversal as a consequence of expected heparin metabolism or degradation alone.

LMWH (LHN-1, Logiparin) [6] = experiment: Percent reversal of LMWH anticoagulation, agents administered at different rates, canine study; type: in vivo, dogs
Method: (§2) Anticoagulation reversal was assessed by a number of standard coagulation tests performed upon samples of venous blood in the manner described hereinabove. Measurements were made 3 minutes prior to heparin reversal (baseline) and 3 minutes, 10 minutes, and 30 minutes post-administration of the heparin reversal agent.

[7] = tested on: standard, unfractionated heparin; experiment: Factor Xa and IIa reversal after standard heparin, cell adhesion ligand analogs, canine study; type: in vivo; conditions: dogs, 3 min post administration
Method: as §2, with “agent. […] Referring to FIGS. 4a through 4d, compound [+18RGD] performs as well, or better, than n-protamine in the standard coagulation tests performed in these studies.” for “agent.”

[8] = Hemodynamic studies and total toxicity score after LMWH reversal, canine study; conditions: dogs, Logiparin
Method: (§4) Hemodynamic studies were conducted by measuring mean arterial pressure (MAP) in mm Mercury, maximum percent changes in cardiac output (CO) and systemic oxygen consumption (VO2), and heart rate (HR) in beats per minute. Measurements and calculations were made at baseline, before LMWH administration, 3 minutes before reversal, every 30 seconds for 5 minutes after reversal, and at 10, 20, and 30 minutes after reversal.
Total toxicity scores (TTS) were developed that reflected maximum declines in each of four parameters (MAP, CO, VO2 and HR) over the first 5 minutes after reversal. The maximum changes occurring in an individual dog over the first 5 minutes were divided by the standard deviation derived from the entire group of tested animals and the four scores were added, resulting in a TTS for each individual dog. The TTS values for each dog were then summed to obtain an average TTS and SD for each peptide studied. The more negative the value of TTS, the more toxic the compound.

[9] = tested on: standard, unfractionated heparin; experiment: Percent reversal of standard heparin anticoagulation by variant peptides and protamine, in vivo canine study, coagulation tests; design: species or system dogs; conditions: for Percent reversal of heparin anticoagulation, ACT: dogs, heparin 150 IU/kg IV, agent 1.5 mg/kg IV over 10 seconds
Method: Data are expressed as a mean ±1 SD. Statistical analysis using linear regression for determination of correlation coefficients, and analysis of variance (ANOVA) or unpaired two-way Student's t-test; p<0.05 was accepted as statistically significant.
as §1

[10] = Maximum hemodynamic changes and total toxicity score after standard heparin reversal, cell adhesion ligand analogs, canine study; conditions: dogs, agent over 10 seconds
Method: In these studies, the anticoagulation-reversing agents were administered over a 10 second interval to maximize the hemodynamic effects.
Hemodynamic studies were conducted by measuring mean blood pressure (Mean BP) in mm Mercury, maximum percent changes in cardiac output (CO) and systemic oxygen consumption (VO2), and heart rate (HR) in beats per minute. Measurements and calculations were made at baseline, before administration of standard, unfractionated heparin, 3 minutes before reversal, every 30 seconds for 5 minutes after reversal.
Total toxicity scores (TTS) were developed in accordance with the method described hereinabove that reflected maximum declines in each of four parameters (MAP, CO, VO2 and HR) over the first 5 minutes after reversal.

[11] = Percent change in platelet count after Enoxaparin reversal, canine study; type: in vivo; conditions: dogs, agent over 10 seconds
Method: Seven female dogs (mean weight 15-20 kg) received intravenous standard, unfractionated heparin (150 IU/kg IV) or LMWH (Enoxaparin, Rhone-Poulac, France; 100 IU/kg factor Xa activity) followed by reversal with commercial salmine protamine (n-protamine purchased from Eli Lilly, Indianapolis, Ind., 1.5 mg/kg (100 IU/mg) IV) or an anticoagulation-reversing agent which is a protamine-like peptide variant identified hereinbelow. In these studies, the anticoagulation-reversing agents were administered over a 10 second interval to maximize the hemodynamic effects.

[12] = Platelet and white blood cell count after LMWH reversal, canine study; type: in vivo; conditions: dogs, Logiparin
Method: In addition to the measurements reported on Table 6, studies were conducted to measure the activated partial thromboplastin time (aPTT), platelet count, and white blood cell count. […] However, the [+18B] variant produced greater aPTT reversal than protamine at the 3, 10 and 30 minute measurements (64%, 95%, and 93%, respectively, as compared to 50%, 83%, and 78%, respectively, for protamine).

[13] = Hemodynamic studies and total toxicity score after LMWH reversal at different rates, canine study; conditions: dogs, Logiparin
Method: as §3, §4
TTS were developed that reflected maximum declines in each of four parameters (MAP, CO, VO2 and HR) over the first 5 minutes after reversal in the same manner as described hereinabove.

[14] = dogs, Logiparin, administered over 3 min
[15] = administered over 10 sec, 3 min
[16] = administered over 10 sec, 10 min
[17] = administered over 10 sec, 30 min
[18] = administered over 3 min, 10 min
[19] = administered over 3 min, 30 min

Work on “PR4 S3 RPVR5 PRVSR6 G2 R4 [Protamine [+21], reference compound]” yielded an aPTT reversal (LMWH (LHN-1, Logiparin) [1]; dogs, 3 minute measurement) of 50%, an aPTT reversal (LMWH (LHN-1, Logiparin) [1]; dogs, 10 minute measurement) of 83% and an aPTT reversal (LMWH (LHN-1, Logiparin) [1]; dogs, 30 minute measurement) of 78%. The “Percent reversal of LMWH anticoagulation, ACT” value (LMWH (LHN-1, Logiparin) [1]; dogs, Logiparin 150 IU/kg, agent 1.5 mg/kg IV after 30 min, 3 min post-administration, corrected for metabolism) was 99%, the “Percent reversal of LMWH anticoagulation, FNa” value (LMWH (LHN-1, Logiparin) [1]; same study, 3 min) was 99% and the “Percent reversal of LMWH anticoagulation, FXa” value (LMWH (LHN-1, Logiparin) [1]; same study, 3 min) was 63%. The “Percent reversal of LMWH anticoagulation, TCT” value (LMWH (LHN-1, Logiparin) [1]; same study, 3 min) was 100%, the “Percent reversal of LMWH anticoagulation, ACT” value (LMWH (LHN-1, Logiparin) [1]; same study, 10 min) was 88% and the “Percent reversal of LMWH anticoagulation, FXa” value (LMWH (LHN-1, Logiparin) [1]; same study, 10 min) was 45%. For the same substance, the “Percent reversal of LMWH anticoagulation, TCT” value (LMWH (LHN-1, Logiparin) [1]; same study, 10 min) was 98%, the “Percent reversal of LMWH anticoagulation, ACT” value (LMWH (LHN-1, Logiparin) [1]; same study, 30 min) was 82% and the “Percent reversal of LMWH anticoagulation, FNa” value (LMWH (LHN-1, Logiparin) [1]; same study, 30 min) was 86%. For the same substance, the “Percent reversal of LMWH anticoagulation, FXa” value (LMWH (LHN-1, Logiparin) [1]; same study, 30 min) was 44%, the “Percent reversal of LMWH anticoagulation, TCT” value (LMWH (LHN-1, Logiparin) [1]; same study, 30 min) was 96% and the “cases with significant systemic arterial hypertension and pulmonary artery hypertension” value [2] was “about 4%”. For the same substance, the “Platelet (percent change in platelet count)” value [3] was -54%, the “Maximal decline in leukocyte count” value ([4]; dogs, Logiparin, administered over 10 sec) was -3% and the “Maximal decline in leukocyte count” value [4, 14] was -26%. The Maximal thrombocytopenia [4, 14] was -32%, the bleeding time ([4]; selected animals, given over a 3 minute interval) was ≤ 8 min and the platelet counts [5] was “thrombocytopenia”. The “Percent reversal of LMWH anticoagulation, FNa” value (LMWH (LHN-1, Logiparin) [6]; [15]) was 96%, the “Percent reversal of LMWH anticoagulation, FXa” value (LMWH (LHN-1, Logiparin) [6]; [15]) was 63% and the “Percent reversal of LMWH anticoagulation, TCT” value (LMWH (LHN-1, Logiparin) [6]; [15]) was 99%. For the same substance, the “Percent reversal of LMWH anticoagulation, ACT” value (LMWH (LHN-1, Logiparin) [6]; [16]) was 83%, the “Percent reversal of LMWH anticoagulation, FXa” value (LMWH (LHN-1, Logiparin) [6]; [16]) was 45% and the “Percent reversal of LMWH anticoagulation, TCT” value (LMWH (LHN-1, Logiparin) [6]; [16]) was 98%. The “Percent reversal of LMWH anticoagulation, ACT” value (LMWH (LHN-1, Logiparin) [6]; [17]) was 78%, the “Percent reversal of LMWH anticoagulation, FNa” value (LMWH (LHN-1, Logiparin) [6]; [17]) was 86% and the “Percent reversal of LMWH anticoagulation, TCT” value (LMWH (LHN-1, Logiparin) [6]; [17]) was 96%. For the same substance, the “Percent reversal of LMWH anticoagulation, FNa” value (LMWH (LHN-1, Logiparin) [6]; administered over 3 min, 3 min) was 99%, the “Percent reversal of LMWH anticoagulation, FXa” value (LMWH (LHN-1, Logiparin) [6]; administered over 3 min, 3 min) was 68% and the “Percent reversal of LMWH anticoagulation, TCT” value (LMWH (LHN-1, Logiparin) [6]; administered over 3 min, 3 min) was 100%. For the same substance, the “Percent reversal of LMWH anticoagulation, ACT” value (LMWH (LHN-1, Logiparin) [6]; [18]) was 87%, the “Percent reversal of LMWH anticoagulation, FNa” value (LMWH (LHN-1, Logiparin) [6]; [18]) was 98% and the “Percent reversal of LMWH anticoagulation, FXa” value (LMWH (LHN-1, Logiparin) [6]; [18]) was 53%. For the same substance, the “Percent reversal of LMWH anticoagulation, TCT” value (LMWH (LHN-1, Logiparin) [6]; [18]) was 99%, the “Percent reversal of LMWH anticoagulation, ACT” value (LMWH (LHN-1, Logiparin) [6]; [19]) was 80% and the “Percent reversal of LMWH anticoagulation, FNa” value (LMWH (LHN-1, Logiparin) [6]; [19]) was 92%. For the same substance, the “Percent reversal of LMWH anticoagulation, FXa” value (LMWH (LHN-1, Logiparin) [6]; [19]) was 45%, the “Percent reversal of LMWH anticoagulation, TCT” value (LMWH (LHN-1, Logiparin) [6]; [19]) was 98% and the “Percent reversal of LMWH anticoagulation, ACT” value (LMWH (LHN-1, Logiparin) [6]; dogs, Logiparin, agent administered over 10 sec, 3 min post-administration) was 96%. The “Percent reversal of LMWH anticoagulation, ACT” value (LMWH (LHN-1, Logiparin) [6]; dogs, Logiparin, agent administered over 3 min, 3 min post-administration) was 99%, the “IIa Reversal” value [7] was 98% and the “Xa Reversal” value [7] was 99%. For the same substance, the “maximum mean increase in pulmonary artery diastolic (PAD) pressure” value [8] was “+10 mm Mercury”, the “maximum mean increase in pulmonary artery systolic (PAS) pressure” value [8] was “+10 mm Mercury” and the ΔHR [8] was -18 beats per minute. For the same substance, the ΔMAP [8] was -32 mm Mercury, the “Total Toxicity Score” value ([8]; first 5 minutes after reversal, 1:1 peptide to LMWH) was -7.6 ± 4.8 and the ΔCO ([8]; maximum percent change) was -32%. The ΔVO2 ([8]; maximum percent change) was -26%, the “Percent reversal of heparin anticoagulation, ACT” value ([9]; 3 min post-administration) was 102% and the “Percent reversal of heparin anticoagulation, ACT” value ([9]; 30 min) was 90%. The “Percent reversal of heparin anticoagulation, APTT” value ([9]; same study, 3 min) was 100%, the “Percent reversal of heparin anticoagulation, FNa” value ([9]; same study, 3 min) was 102% and the “Percent reversal of heparin anticoagulation, FXa” value ([9]; same study, 3 min) was 101%. The “Percent reversal of heparin anticoagulation, PT” value ([9]; same study, 3 min) was 84%, the “Percent reversal of heparin anticoagulation, TCT” value ([9]; same study, 3 min) was 101% and the “Percent reversal of heparin anticoagulation, APTT” value ([9]; same study, 30 min) was 127%. For the same substance, the “Percent reversal of heparin anticoagulation, FXa” value ([9]; same study, 30 min) was 96%, the “Percent reversal of heparin anticoagulation, PT” value ([9]; same study, 30 min) was 88% and the “Percent reversal of heparin anticoagulation, TCT” value ([9]; same study, 30 min) was 100%. The “Maximum hemodynamic change, Mean BP” value ([10]; standard heparin 150 IU/kg IV, 5 minutes) was -31 mm Mercury, the “Maximum hemodynamic change, CO” value ([10]; standard heparin, 5 minutes) was -36% and the “Maximum hemodynamic change, HR” value ([10]; standard heparin, 5 minutes) was -27 beats/min. The “Maximum hemodynamic change, VO2” value ([10]; standard heparin, 5 minutes) was -32%, the “Total Toxicity Score” value ([10]; standard unfractionated heparin) was -8.02 ± 5.20 and the “Platelet (percent change in platelet count)” value [11] was -40%. For the same substance, the “mean decline in platelet count” value [12] was -43%, the “Total Toxicity Score” value ([13]; administered over 10 sec) was -6.4 ± 3.8 and the ΔCO ([13]; administered over 10 sec) was -32%. For the same substance, the ΔHr ([13]; administered over 10 sec) was -18 beats per minute, the ΔMAP ([13]; administered over 10 sec) was -32 mm Mercury and the ΔVO2 ([13]; administered over 10 sec) was -26%. The “Total Toxicity Score” value ([13]; administered over 3 min) was -7.2 ± 3.5, the ΔCO ([13]; administered over 3 min) was -28% and the ΔHr ([13]; administered over 3 min) was -36 beats per minute. It also gave a ΔMAP ([13]; administered over 3 min) of -18 mm Mercury and a ΔVO2 ([13]; administered over 3 min) of -23%.
